According to ChEMBL document CHEMBL1147422, “Synthesis and antitumor activity of 10-substituted benzylidene anthrone” (2004):

Assays:
A549 [1] = test: Inhibition ratio against A-549 cancer cell growth at a concentration of 10e-5 mol/L; format: functional, Homo sapiens
P388 [2] = test: Inhibition ratio against P-388 cancer cell growth at a concentration of 10e-8 mol/L; format: functional, Mus musculus
P388 [3] = test: Inhibition ratio against P-388 cancer cell growth at a concentration of 10e-4 mol/L; format: functional, Mus musculus
A549 [4] = test: Inhibition ratio against A-549 cancer cell growth at a concentration of 10e-7 mol/L; format: functional, Homo sapiens
P388 [5] = test: Inhibition ratio against P-388 cancer cell growth at a concentration of 10e-7 mol/L; format: functional, Mus musculus
P388 [6] = test: Inhibition ratio against P-388 cancer cell growth at a concentration of 10e-5 mol/L; format: functional, Mus musculus
A549 [7] = test: Inhibition ratio against A-549 cancer cell growth at a concentration of 10e-6 mol/L; format: functional, Homo sapiens
A549 [8] = test: Inhibition ratio against A-549 cancer cell growth at a concentration of 10e-4 mol/L; format: functional, Homo sapiens
P388 [9] = test: Inhibition ratio against P-388 cancer cell growth at a concentration of 10e-6 mol/L; format: functional, Mus musculus
A549 [10] = test: Inhibition ratio against A-549 cancer cell growth at a concentration of 10e-8 mol/L; format: functional, Homo sapiens

SMILES	Ratio (A549 [1])	Ratio (P388 [2])	Ratio (P388 [3])	Ratio (A549 [4])	Ratio (P388 [5])	Ratio (P388 [6])	Ratio (A549 [7])	Ratio (A549 [8])	Ratio (P388 [9])	Ratio (A549 [10])
COc1ccc(C=C2c3ccccc3C(=O)c3ccccc32)cc1	84.7	75.5	76.7	85.4	64.3	72.5	87	90	76.5	84.8
O=C1c2ccccc2C(=Cc2ccc(O)cc2)c2ccccc21	87	42.8	100	88.7	27.1	72	87.2	92.9	41.6	60
COc1ccccc1C=C1c2ccccc2C(=O)c2ccccc21	81.7	32.7	82.2	86.8	47	76.1	85.7	89.3	55.4	66.3
O=C1c2ccccc2C(=Cc2ccccc2Cl)c2ccccc21	53	0	58.4	6	0	23.7	0.3	89.9	0	5.9
COc1cccc(C=C2c3ccccc3C(=O)c3ccccc32)c1	92.5	1	96	38.1	7.1	48.2	25.1	95.8	27.2	6.2
Cc1cccc(C=C2c3ccccc3C(=O)c3ccccc32)c1	18.2	0	53.3	0	0	7.2	0	93	0	0
O=C1c2ccccc2C(=Cc2ccccc2O)c2ccccc21	94.8	38.5	95.6	83	44.9	88.2	89.3	96.3	65.8	85.2
O=C1c2ccccc2C(=Cc2ccc(Cl)cc2)c2ccccc21	87.3	4.4	70	33.6	2.8	36	41.9	96	3.9	41.7
O=C1c2ccccc2C(=Cc2cccc([N+](=O)[O-])c2)c2ccccc21	91.8	30.7	89.8	7.7	22.1	55.8	12.4	96	23.9	13.2
O=C1c2ccccc2C(=Cc2ccccc2)c2ccccc21	79.9	2.7	97.8	1	0	56.2	9.8	95.4	17.8	4.4
COc1ccc(C=C2c3ccccc3C(=O)c3ccccc32)cc1OC	92.8	50.9	95.7	90.6	53.6	80.2	87	95.7	56	81.7
Cc1ccccc1C=C1c2ccccc2C(=O)c2ccccc21	84.8	13.1	84.1	0	8	42.4	18.5	90.9	24.9	5.7
O=C1c2ccccc2C(=Cc2cccc(Cl)c2)c2ccccc21	92	10.9	89.2	5.7	19.3	39.4	62.9	97.1	11.9	12.5
Cc1ccc(C=C2c3ccccc3C(=O)c3ccccc32)cc1	91.8	56.5	69	92.7	49.3	42.4	90	95.2	48.6	84.7
O=C1c2ccccc2C(=Cc2ccc(F)cc2)c2ccccc21	88.2	5.2	83.3	18.5	10.3	31.4	56.5	96.8	18.4	49.2
